Non-standard residues stand in square brackets, D forms with d. Residues, ends and D or L forms follow the SMILES beside them. *: point of attachment. dPhe(4-NHCONH2) = NC(=O)Nc1ccc(C[C@@H](N)C(=O)O)cc1; Dihydroorotyl(S) = O=C1C[C@@H](C(=O)*)NC(=O)N1; dPhe(4-Cl) = N[C@H](Cc1ccc(Cl)cc1)C(=O)O; Phe(4-NH2) = Nc1ccc(C[C@H](N)C(=O)O)cc1; d2Nal = N[C@H](Cc1ccc2ccccc2c1)C(=O)O; Lys(iPr) = CC(C)NCCCC[C@H](N)C(=O)O; d3Pal = N[C@H](Cc1cccnc1)C(=O)O
How the values were obtained:
Assay type in all cases: in vivo, human
[1] = test system: Patients with Rheumatoid Arthritis; assay: Rheumatoid arthritis patients treated with degarelix: laboratory variables; parameters: LH: unit not given beside the values
From the text: [table] […] Examples of Patients with Continued RA Improvement Over Several Weeks Despite Stably Low Levels of LH

Patient with Lupus = assay: Lupus patient treated with degarelix (and earlier therapies)
Method: Example of Treating a Patient with Lupus with a GnRH Antagonist
Due to their painful condition, they have been followed up by a pain clinic. They were offered a tricyclic antidepressant, amitriptyline 25 mg in March 2014 for their painful condition.
Therefore, we decided to offer […] degarelix. GnRH antagonists have shown anti-inflammatory effects and therefore we considered that degarelix, a depot GnRH antagonist, may have a therapeutic effect in lupus. 09.15.14, […] received […] loading dose of degarelix, 240 mg s.c.
They received their second dose of degarelix in October 2014, 80 mg s.c. They continue on 80 mg s.c. every two weeks.

[2] = test system: Patient with Spondyloarthritis; assay: Spondyloarthritis patient treated with degarelix; conditions: for BASDAI: baseline 3.8
Method: • person, diagnosed with spondyloarthritis • Fulfilled the ASAS criteria for axial radiographic spondyloarthritis. • October 2014 received first dose of degarelix, 240 mg s.c. • Received degarelix 80 mg s.c. every two weeks thereafter. Disease activity in ankylosing spondylitis/spondyloarthritis is measured by the BASDAI (Bath Ankylosing Spondylitis Disease Activity Index (1)), has been extensively validated in clinical trials (2-3), and is one of the most commonly used outcome measures in clinical trials. This is a composite index that evaluates fatigue, axial and peripheral pain, stiffness and enthesopathy. Their BASDAI was at 3.8 at baseline. In October 2014 they received their first dose of degarelix 240 mg s.c. By 2 weeks, their BASDAI had reduced to 2.9, and by 8 weeks it had reduced to 1.3, remission. At 4 months, their BASDAI continues to be low at 1.5. • Response to therapy in clinical practice is defined as improvement of 2 units or 50% on a 0-10 scale of the BASDAI, and expert opinion that the treatment should be continued. Their reduction by 4 months was 2.3. We shall continue treatment.

CC(=O)N[C@H](Cc1ccc2ccccc2c1)C(=O)N[C@H](Cc1ccc(Cl)cc1)C(=O)N[C@H](Cc1cccnc1)C(=O)N[C@@H](CO)C(=O)N[C@@H](Cc1ccc(NC(=O)[C@@H]2CC(=O)NC(=O)N2)cc1)C(=O)N[C@H](Cc1ccc(NC(N)=O)cc1)C(=O)N[C@@H](CC(C)C)C(=O)N[C@@H](CCCCNC(C)C)C(=O)N1CCC[C@H]1C(=O)N[C@H](C)C(N)=O [degarelix] (Ac-[d2Nal][dPhe(4-Cl)][d3Pal]S[Phe(4-NH2)](Dihydroorotyl(S))[dPhe(4-NHCONH2)]L[Lys(iPr)]P[dA]-NH2)
HbA1c (4.3-6.1), final ([1]; Patient 1, by 24 wks, baseline 6.4, * normalized): 6.4, 6.1*
Rheumatoid factor (<14), final ([1]; Patient 1, by 24 wks, baseline 7): 7, 9
LH, final ([1]; Patient 1, by 24 wks, baseline 22): 22, <0.
FSH, final ([1]; Patient 1, by 24 wks, baseline 38): 38, 1
ESR (erythrocyte sedimentation rate), final ([1]; Patient 1, by 24 wks, baseline 46, * normalized): 46, 24 *
CRP (<5), final ([1]; Patient 1, by 24 wks, baseline 63): 63, 16
Blood Pressure, final ([1]; Patient 1, by 24 wks, baseline 151/90, * normalized): 151/90, 120/71 *
CCP antibody (<10), final ([1]; Patient 1, by 24 wks, baseline NEG): NEG, NEG
HbA1c (4.3-6.1), final ([1]; Patient 2, by 15 wks, baseline 5.3): 5.3, 5.3
LH, final ([1]; Patient 2, by 15 wks, baseline 36): 36, <0.3
CRP (<5), final ([1]; Patient 2, by 15 wks, baseline 44): 44, 23
Rheumatoid factor (<14), final ([1]; Patient 2, by 15 wks, baseline 51): 51, 38
ESR (erythrocyte sedimentation rate), final ([1]; Patient 2, by 15 wks, baseline 51, * normalized): 51, 16*
FSH, final ([1]; Patient 2, by 15 wks, baseline 72): 72, 0.4
CCP antibody (<10), final ([1]; Patient 2, by 15 wks, baseline 101): 101, 70
Blood Pressure, final ([1]; Patient 2, by 15 wks, baseline 118/82): 118/82, 126/80
LH ([1]; Patient 3, 4 wks, baseline 2): <0.3
ESR ([1]; Patient 3, 4 wks, baseline 46): 41
LH ([1]; Patient 3, 8 wks, baseline 2): <0.3
ESR ([1]; Patient 3, 8 wks, baseline 46): 36
LH ([1]; Patient 3, 12 wks, baseline 2): <0.3
ESR ([1]; Patient 3, 12 wks, baseline 46): 20
LH, final ([1]; Patient 3, by 12 wks, baseline 2): 2, >0.3
HbA1c (4.3-6.1), final ([1]; Patient 3, by 12 wks, baseline 5.1): 5.1, 5.4
FSH, final ([1]; Patient 3, by 12 wks, baseline 6): 6, 1
CRP (<5), final ([1]; Patient 3, by 12 wks, baseline 33): 33, 19
ESR (erythrocyte sedimentation rate), final ([1]; Patient 3, by 12 wks, baseline 46, * normalized): 46, 20 *
CCP antibody (<10), final ([1]; Patient 3, by 12 wks, baseline 102): 102, 101
Blood Pressure, final ([1]; Patient 3, by 12 wks, baseline 110/68): 110/68; 110/66
Rheumatoid factor (<14), final ([1]; Patient 3, by 12 wks, baseline 178): 178, 163
LH ([1]; Patient 4, 3½ wks, baseline 8): <0.3
ESR ([1]; Patient 4, 3½ wks, baseline 78): 68
LH ([1]; Patient 4, 9 wks, baseline 8): <0.3
ESR ([1]; Patient 4, 9 wks, baseline 78): 36
HbA1c (4.3-6.1), final ([1]; Patient 4, by 9 wks, baseline 6.9): 6.9, 6.4
LH, final ([1]; Patient 4, by 9 wks, baseline 8): 8, <0.3
FSH, final ([1]; Patient 4, by 9 wks, baseline 15, * normalized): 15, 0.7*
ESR (erythrocyte sedimentation rate), final ([1]; Patient 4, by 9 wks, baseline 78): 78, 36
Blood Pressure, final ([1]; Patient 4, by 9 wks, baseline 130/80): 130/80; 120/78
CRP (<5), final ([1]; Patient 4, by 9 wks, baseline 142): 142, 56
Rheumatoid factor (<14), final ([1]; Patient 4, by 9 wks, baseline >200, above limit): >200, >200
CCP antibody (<10), final ([1]; Patient 4, by 9 wks, baseline >340, above limit): >340, >340
HbA1c (4.3-6.1), final ([1]; Patient 5, by 7 wks, baseline 5.1): 5.1, 5.5
ESR (erythrocyte sedimentation rate), final ([1]; Patient 5, by 7 wks, baseline 28): 28, 8
LH, final ([1]; Patient 5, by 7 wks, baseline 44): 44, <0.3
FSH, final ([1]; Patient 5, by 7 wks, baseline 64): 64, <0.1
Blood Pressure, final ([1]; Patient 5, by 7 wks, baseline 134/79): 134/79; 124/80
Rheumatoid factor (<14), final ([1]; Patient 5, by 7 wks, baseline 167): 167, >200
CCP antibody (<10), final ([1]; Patient 5, by 7 wks, baseline 257): 257, 235
CRP (<5), final ([1]; Patient 5, by 7 wks, baseline <5): <5, 6
HbA1c (4.3-6.1), final ([1]; Patient 6, by 3 ½ wks, baseline 5.5): 5.5, 5.4
Rheumatoid factor (<14), final ([1]; Patient 6, by 3 ½ wks, baseline 8): 8, 8
CRP (<5), final ([1]; Patient 6, by 3 ½ wks, baseline 22, * normalized): 22, <5*
LH, final ([1]; Patient 6, by 3 ½ wks, baseline 30): 30, <0.3
ESR (erythrocyte sedimentation rate), final ([1]; Patient 6, by 3 ½ wks, baseline 37, * normalized): 37, 24*
FSH, final ([1]; Patient 6, by 3 ½ wks, baseline 79): 79, 0.6
Blood Pressure, final ([1]; Patient 6, by 3 ½ wks, baseline 90/60): 90/60; 100/64
CCP antibody (<10), final ([1]; Patient 6, by 3 ½ wks, baseline NEG): NEG, NEG
Total urinary protein (Patient with Lupus; 7 Nov. 2014, 15 Sep. 2014 0.78): 0.17 g/L
LH (<12) (Patient with Lupus; 7 Nov. 2014, 15 Sep. 2014 11): <0.3
FSH (<12) (Patient with Lupus; 7 Nov. 2014, 15 Sep. 2014 14): <0.1
ANA (<1) (Patient with Lupus; 7 Nov. 2014, 15 Sep. 2014 >32 out of range): 26↑
Total urinary protein (Patient with Lupus; 14 Oct. 2014, 15 Sep. 2014 0.78): 0.15 ^2 g/L
FSH (<12) (Patient with Lupus; 14 Oct. 2014, 15 Sep. 2014 14): <0.1
ANA (<1) (Patient with Lupus; 14 Oct. 2014, 15 Sep. 2014 >32 out of range): 28↑
Total urinary protein (Patient with Lupus; 23 Sep. 2014, 15 Sep. 2014 0.78): 0.75 ↑ g/L
LH (<12) (Patient with Lupus; 23 Sep. 2014, 15 Sep. 2014 11): <0.3
FSH (<12) (Patient with Lupus; 23 Sep. 2014, 15 Sep. 2014 (loading dose day) 14): 2
ANA (<1) (Patient with Lupus; 25 Sep. 2014, 15 Sep. 2014 >32 out of range): 31 ↑
Parasthesias (Patient with Lupus; by 1 month of treatment, balance improved): no longer has parasthesias
Proteinuria (Patient with Lupus; by 1 month, still in remission at 2 months): complete remission
Morning pain (Patient with Lupus; by 8 weeks, before 3.5 hours): 0 h
Morning pain (Patient with Lupus; by day 5, before 3.5 hours): 1.5 h
Morning pain (Patient with Lupus; by day 10, before 3.5 hours): 0 h
Ulcers on toes and hands (Patient with Lupus; by day 10 of treatment): several ulcers had healed
Foot erythema (Patient with Lupus; week 8 (FIG. 8)): decreased
BASDAI ([2]; at 4 months): 1.5
BASDAI ([2]; by 2 weeks): 2.9
BASDAI reduction ([2]; by 4 months): 2.3
BASDAI ([2]; by 8 weeks, remission): 1.3

From patent US20160346255A1, “METHODS, AGENTS AND COMPOSITIONS FOR TREATMENT OF INFLAMMATORY CONDITIONS” (Betanien Hospital, priority 2014, published 2016)
